Paper PMC6855212, “Antibacterial activity of synthetic 1,3‐bis(aryloxy)propan‐2‐amines against Gram‐positive bacteria” (MicrobiologyOpen, 2019)
Converted amounts (≈) assume the structure as drawn. “And” between values parts separate entries of the source, which are not always exact repeats. Equal entries are not always repeated. Where two headings read alike, the source gives them in different places.

Experiments:
[1] = system: Enterococcus faecalis ATCC 29213; assay: MIC, broth microdilution; assay type: cell-based; conditions: for MIC: Enterococcus faecalis, ATCC29213; for Antibacterial activity in initial screening, E. faecalis: concentration of 10 μg/ml
Description: (§1) The antibacterial activity of the compounds was evaluated using the broth microdilution method in 96‐well microplates according to the Clinical and Laboratory Standards Institute protocol (CLSI, 2017). First, synthetic compounds were diluted in Mueller Hinton broth (MHB; Oxoid, Thermo Scientific, UK) to concentrations ranging from 20 to 2.5 μg/ml. The same volume of a bacterial suspension containing 10^5 CFU/ml was added to each of the previous solutions, resulting in final compound concentrations from 10 to 1.25 μg/ml. […] All conditions were tested in triplicate and the results shown are representative of three independent assays.

[2] = system: MRSA ATCC 43300; assay: MIC, broth microdilution; assay type: cell-based; conditions: Staphylococcus aureus; — = no activity up to 10 μg/ml; read-out: MIC MRSA ATCC 43300
Description: as §1

[3] = system: MRSA Strain 5749; assay: MIC, broth microdilution; assay type: cell-based; conditions: Staphylococcus aureus, clinical strain, read-out: MIC MRSA Strain 5749
Description: as §1

[4] = system: MRSA Strain 5912; assay: MIC, broth microdilution; assay type: cell-based; conditions: Staphylococcus aureus, clinical strain, read-out: MIC MRSA Strain 5912
Description: as §1

[5] = system: MRSA Strain 6100; assay: MIC, broth microdilution; assay type: cell-based; conditions: Staphylococcus aureus, clinical strain, — = no activity up to 10 μg/ml, read-out: MIC MRSA Strain 6100
Description: as §1

[6] = system: MRSA Strain 6154; assay: MIC, broth microdilution; assay type: cell-based; conditions: Staphylococcus aureus, clinical strain, read-out: MIC MRSA Strain 6154
Description: as §1

[7] = system: MRSA Strain 6613; assay: MIC, broth microdilution; assay type: cell-based; conditions: Staphylococcus aureus, clinical strain, read-out: MIC MRSA Strain 6613
Description: as §1

[8] = system: Staphylococcus aureus ATCC 29212; assay: MIC, broth microdilution; assay type: cell-based; conditions: for MIC: Staphylococcus aureus, ATCC29212; for Antibacterial activity in initial screening, S. aureus: concentration of 10 μg/ml
Description: as §1

[9] = system: Streptococcus pyogenes ATCC 19615; assay: MIC, broth microdilution; assay type: cell-based; conditions: for MIC: Streptococcus pyogenes, ATCC19615; for Antibacterial activity in initial screening, S. pyogenes: concentration of 10 μg/ml
Description: as §1

[10] = system: E. faecalis ATCC 29213; assay: MBC, plating of wells without growth; assay type: cell-based; conditions: Enterococcus faecalis, ATCC29213; at least 99.9% inhibition of cell count
Description: (§2) After incubation at 35°C for 24 hr, the colonies were counted and the percentage of inhibition was calculated. MBC is defined as the lowest compound's concentration that inhibits at least 99.9% of the bacterial cell count compared to nontreated viability control (Clinical and Laboratory Standards Institute, 1999).

[11] = system: MRSA ATCC 43300; assay: MBC, plating of wells without growth; assay type: cell-based; conditions: Staphylococcus aureus
Description: as §2

[12] = system: MRSA Strain 5749; assay: MBC, plating of wells without growth; assay type: cell-based; conditions: Staphylococcus aureus
Description: as §2

[13] = system: MRSA Strain 5912; assay: MBC, plating of wells without growth; assay type: cell-based; conditions: Staphylococcus aureus
Description: as §2

[14] = system: MRSA Strain 6100; assay: MBC, plating of wells without growth; assay type: cell-based; conditions: Staphylococcus aureus
Description: as §2

[15] = system: MRSA Strain 6154; assay: MBC, plating of wells without growth; assay type: cell-based; conditions: Staphylococcus aureus
Description: as §2

[16] = system: MRSA Strain 6613; assay: MBC, plating of wells without growth; assay type: cell-based; conditions: Staphylococcus aureus
Description: as §2

[17] = system: S. aureus ATCC 29212; assay: MBC, plating of wells without growth; assay type: cell-based; conditions: Staphylococcus aureus, ATCC29212; at least 99.9% inhibition of cell count
Description: as §2

[18] = system: S. pyogenes ATCC 19615; assay: MBC, plating of wells without growth; assay type: cell-based; conditions: Streptococcus pyogenes, ATCC19615; at least 99.9% inhibition of cell count
Description: as §2

[19] = Cytotoxicity, MTT reduction assay; assay type: cell-based; conditions: African green monkey, 48 hr
Description: (§3) The cytotoxicity of active compounds to mammalian cells was assessed using the MTT reduction assay (Mosmann, 1983). Vero and BSC‐40 cells were seeded in 96‐well plates (8 × 10^4 cells per well) and incubated at 37°C and 5% CO2 atmosphere. After 24 hr of incubation, 200 μL of fresh medium containing a serial dilution of compounds (10–1.25 μg/ml) were added to the plates. After 48 hr of incubation in the same conditions, 100 μL of MTT solution in MEM or DMEM (5 mg/ml) was added to each well and incubated for 3 hr at 37°C and 5% CO2 atmosphere. The medium was removed and 100 μL of DMSO was used to solubilize formazan crystals. Absorbance at 570 nm of each well was read using a spectrophotometer (VersaMax, Molecular Devices).

[20] = system: MRSA strains; assay: MIC, broth microdilution, MRSA strains taken together; assay type: cell-based; conditions: Staphylococcus aureus; over the six MRSA strains (CPD18: four out of six); read-out: MIC against MRSA strains
Description: as §1

[21] = system: Gram‐positive bacteria (E. faecalis, S. aureus and S. pyogenes); assay: MIC, broth microdilution, Gram‐positive bacteria taken together; assay type: cell-based; conditions: Staphylococcus aureus; over different bacterial strains, including MRSA where stated; read-out: MIC against Gram‐positive bacteria, summary
Description: as §1

[22] = system: BSC‐40 cells; assay: Cytotoxicity, MTT reduction assay; assay type: cell-based; conditions: BSC‐40; bacterial strain not stated
Description: as §3

[23] = system: Vero cells; assay: Cytotoxicity, MTT reduction assay; assay type: cell-based; conditions: bacterial strain not stated
Description: as §3

[24] = system: MRSA strains; assay: MBC, MRSA strains taken together; assay type: cell-based, Staphylococcus aureus; conditions: concentrations tested (up to 10 μg/ml)
Description: as §2

[25] = 24 hr, 35°C, — = no activity up to 10 μg/ml, read-out: MIC Enterococcus faecalis ATCC 29213
[26] = read-out: MIC against E. faecalis
[27] = 24 hr, 35°C, read-out: MIC Staphylococcus aureus ATCC 29212
[28] = read-out: MIC against S. aureus
[29] = 24 hr, 35°C, read-out: MIC Streptococcus pyogenes ATCC 19615
[30] = read-out: MIC against S. pyogenes
[31] = BSC-40 cells, BSC‐40, MTT, read-out: CC50
[32] = BSC-40 cells, BSC‐40, MTT, read-out: CC50 ± SD
[33] = Vero cells, MTT, read-out: CC50
[34] = Vero cells, MTT, read-out: CC50 ± SD

| MIC [3] | MIC [4] | MIC [6] | MIC [7] | MIC [8, 27] | MIC [8, 28] | MIC [9, 29] | MIC [9, 30] | MIC [20] | Compound | Antibacterial activity in initial screening, S. aureus [8] | Antibacterial activity in initial screening, S. pyogenes [9] | MBC [12] | MBC [13] | MBC [15] | MBC [16] | MBC [17] | MBC [18] | CC50 at 48 h [19, 32] | CC50 at 48 h [19, 33] | CC50 at 48 h [19, 34] | further results |
| --- | --- | --- | --- | --- | --- | --- | --- | --- | --- | --- | --- | --- | --- | --- | --- | --- | --- | --- | --- | --- | --- |
| 6.58 µM (≈ 2.26 µg/mL) | 6.58 µM (≈ 2.26 µg/mL) | 6.58 µM (≈ 2.26 µg/mL) | 6.58 µM (≈ 2.26 µg/mL) | 6.58 µM | 2.5 µg/mL | 6.58 µM | 2.5 µg/mL | 2.5 µg/mL and 6.58 µM | NC(COc1cccc2ccccc12)COc1cccc2ccccc12 [CPD20] | inhibited the growth | inhibited the growth | 6.58 µM (≈ 2.26 µg/mL) | 6.58 µM (≈ 2.26 µg/mL) | 26.3 µM (≈ 9.04 µg/mL) | 6.58 µM (≈ 2.26 µg/mL) | 26.3 µM (≈ 9.04 µg/mL) | 6.58 µM (≈ 2.26 µg/mL) | 6.58 ± 1.97 µM | 3.79 ± 0.6 µg/mL | 9.98 ± 1.58 µM | MIC [1, 25]: 13.2 µM; MIC [1, 26]: 5 µg/mL; Antibacterial activity in initial screening, E. faecalis [1]: inhibited the growth; MIC [2]: 6.58 µM (≈ 2.26 µg/mL); MIC [5]: 6.58 µM (≈ 2.26 µg/mL); MBC [10]: 26.3 µM (≈ 9.04 µg/mL); MBC [11]: 13.2 µM (≈ 4.52 µg/mL); MBC [14]: 6.58 µM (≈ 2.26 µg/mL); CC50 at 48 h [19, 31]: 2.5 ± 0.75 µg/mL; MIC [21]: 2.5 µg/mL to 5 µg/mL and 6.58 µM to 13.2 µM |
| 28.7 µM (≈ 8.95 µg/mL) | 28.7 µM (≈ 8.95 µg/mL) | 28.7 µM (≈ 8.95 µg/mL) | 28.7 µM (≈ 8.95 µg/mL) | 28.7 µM | 10 µg/mL | 28.7 µM | 10 µg/mL | 10 µg/mL and 28.7 µM | NC(COc1ccc(Cl)cc1)COc1ccc(Cl)cc1 [CPD18] | showed activity | showed activity | > 28.7 µM | > 28.7 µM | > 28.7 µM | > 28.7 µM | > 28.7 µM | > 28.7 µM | 16.4 ± 0.52 µM | 5.99 ± 0.09 µg/mL | 17.2 ± 0.26 µM | CC50 at 48 h [19, 31]: 5.73 ± 0.18 µg/mL; Bactericidal activity against MRSA strains [24]: no bactericidal activity was observed; MIC [21]: 10 µg/mL and 28.7 µM |

| Compound | MIC [3] | MIC [4] | MIC [6] | MIC [7] | MIC [8, 27] | MIC [8, 28] | MIC [9, 29] | MIC [9, 30] | MIC [20] | Antibacterial activity in initial screening, S. aureus [8] | Antibacterial activity in initial screening, S. pyogenes [9] | MBC [12] | MBC [13] | MBC [15] | MBC [16] | MBC [17] | MBC [18] | CC50 at 48 h [19, 32] | CC50 at 48 h [19, 33] | CC50 at 48 h [19, 34] | further results |
| --- | --- | --- | --- | --- | --- | --- | --- | --- | --- | --- | --- | --- | --- | --- | --- | --- | --- | --- | --- | --- | --- |
| Cl.NC(COc1ccc(Cl)c(Cl)c1)COc1ccc(Cl)c(Cl)c1 [CPD22, 1,3‐Bis(3,4‐dichlorophenoxy)propan‐2‐aminium chloride] | 5.99 µM | 5.99 µM | 5.99 µM | 12 µM | 12 µM | 5 µg/mL | 5.99 µM | 2.5 µg/mL | 2.5 µg/mL to 5 µg/mL and 5.99 µM to 12 µM | inhibited the growth | inhibited the growth | 5.99 µM | 5.99 µM | > 23.9 µM | 12 µM | 12 µM | 23.9 µM | 10.6 ± 3.16 µM | 5.47 ± 1.89 µg/mL | 13.1 ± 4.53 µM | MIC [1, 25]: 12 µM; MIC [1, 26]: 5 µg/mL; Antibacterial activity in initial screening, E. faecalis [1]: inhibited the growth; MIC [2]: 12 µM; MIC [5]: 5.99 µM; MBC [10]: > 23.9 µM; MBC [11]: 12 µM; MBC [14]: 23.9 µM; Selective Index (SI), higher value [22]: 1.77; Selective Index (SI), higher value [23]: 2.19; MIC [21]: 2.5 µg/mL to 5 µg/mL and 5.99 µM to 12 µM; melting point: 224.1 to 225.6 °C |
